Results reported in patent publication US9427415B2, “Methods and compositions for modifying sensorial perception” (The Procter & Gamble Company, priority 2014, dated 2016).
Structures can show the parent of a compound that is named as a salt. Where two headings read alike, the source gives them in different places.

Columns and labels:
human TRPA1 = biological target: T1, human TRPA1 (Homo sapiens, UniProt O75762, K186N/R3C/R58T); experiment: Intracellular calcium (Fluo-4, FLIPR) activation of TRPA1 cells by GRAS compounds; format: cell-based; details: for activation at 1000 µM / activation at 100 µM: read-out: A1 activation, % of agonist value;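 for all read-outs here: TRPA1-expressing cells, fluorescence read on a FLIPR Tetra (ex 488 nm, em 514 nm) every 2 s for 10 min after compound addition, baseline subtracted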
T1 construct: expressed in transfected cells; pcDNA3 control cells
T1 sequence (O75762 whole entry R3C/R58T/K186N): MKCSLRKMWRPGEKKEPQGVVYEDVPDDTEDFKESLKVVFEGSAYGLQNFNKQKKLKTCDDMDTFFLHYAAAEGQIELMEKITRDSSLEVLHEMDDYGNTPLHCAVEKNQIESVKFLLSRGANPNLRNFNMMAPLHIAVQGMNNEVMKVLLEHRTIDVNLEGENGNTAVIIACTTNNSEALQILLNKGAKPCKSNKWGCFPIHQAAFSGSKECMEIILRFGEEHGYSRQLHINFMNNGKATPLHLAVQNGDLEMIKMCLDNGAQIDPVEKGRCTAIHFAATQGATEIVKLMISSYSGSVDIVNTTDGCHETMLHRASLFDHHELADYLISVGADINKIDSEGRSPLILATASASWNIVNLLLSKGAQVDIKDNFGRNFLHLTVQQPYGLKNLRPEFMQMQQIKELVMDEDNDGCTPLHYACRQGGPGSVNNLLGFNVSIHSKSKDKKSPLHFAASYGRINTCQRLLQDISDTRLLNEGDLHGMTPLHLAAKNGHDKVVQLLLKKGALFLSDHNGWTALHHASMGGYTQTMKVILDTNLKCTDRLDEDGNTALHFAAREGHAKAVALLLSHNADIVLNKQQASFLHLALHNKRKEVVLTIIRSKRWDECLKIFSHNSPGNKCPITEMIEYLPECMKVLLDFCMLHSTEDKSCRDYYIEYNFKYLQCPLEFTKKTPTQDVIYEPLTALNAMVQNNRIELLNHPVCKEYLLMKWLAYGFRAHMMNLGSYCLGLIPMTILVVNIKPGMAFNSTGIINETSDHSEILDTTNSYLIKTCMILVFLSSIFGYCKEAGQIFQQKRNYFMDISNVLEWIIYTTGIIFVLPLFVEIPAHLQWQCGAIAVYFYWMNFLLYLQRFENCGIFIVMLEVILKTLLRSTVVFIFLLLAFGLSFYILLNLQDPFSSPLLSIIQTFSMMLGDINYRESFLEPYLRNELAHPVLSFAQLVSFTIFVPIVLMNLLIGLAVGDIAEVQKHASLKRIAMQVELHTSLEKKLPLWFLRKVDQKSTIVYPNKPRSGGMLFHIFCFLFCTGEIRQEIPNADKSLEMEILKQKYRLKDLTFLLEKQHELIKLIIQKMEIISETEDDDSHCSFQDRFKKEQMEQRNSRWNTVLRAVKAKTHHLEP

TRPA1V1 = experiment: Intracellular calcium (Fluo-4, FLIPR) activation of TRPA1V1 cells (co-expressing TRPA1 and TRPV1) by GRAS compounds; format: cell-based, human; details: relative to AITC 30 μM;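 note: HEK293 cells co-expressing TRPA1 and TRPV1, fluorescence read at 488/514 nm after baseline subtraction, recorded every 2 s over 10 min, ionomycin 10 µM and buffer as controls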
[1] = Table 1(d), 1 mM, relative to AITC 30 μM
[2] = Table 1(c), 1 mM, relative to AITC 30 μM
[3] = Table 1(e), 1 mM, relative to AITC 30 μM
[4] = Table 1(c), relative to AITC 30 μM

`CCCOC(C)OCCc1ccccc1` (centres unmarked) [Acetaldehyde, phenethyl propyl acetal] was tested. Which “A1 activation, % of agonist value” (human TRPA1; [1]) did it give?
The value was 86.4%.

And the “A1V1 activation, % of agonist value” (TRPA1V1; Table 1(d), 1 mM)?
The value was 62.2%.

Which activation at 1000 µM (human TRPA1; [2]) does the source give for `C=CCOC(=O)c1ccccc1N` [Allyl anthranilate] here?
Its activation at 1000 µM is 73.8%.

What about the “A1V1 activation, % of agonist value” (TRPA1V1; Table 1(c), 1 mM) of the same molecule?
Its value is 75.03%.

`C=CCOC(=O)Cc1ccccc1` [Allyl phenylacetate] was tested. Which activation at 1000 µM (human TRPA1; [2]) did it give?
Its activation at 1000 µM is 86.2%.

What about the “A1V1 activation, % of agonist value” (TRPA1V1; Table 1(c), 1 mM) of the same molecule?
Its value is 84.14%.

Which results are given for `C=CCCC(=O)/C=C/C1C(C)=CCCC1(C)C` (stereo not drawn) [Allyl-alpha-ionone]?
A1 activation, % of agonist value (human TRPA1; [3]): 52.6%; A1V1 activation, % of agonist value (TRPA1V1; Table 1(e), 1 mM): 89.7%

What does the source list for `COc1ccc(C=C(C)C=O)cc1` [Alpha Methyl-4-methoxycinnamaldehyde]?
activation at 1000 µM (human TRPA1; [3]): 67.1%; A1V1 activation, % of agonist value (TRPA1V1; Table 1(e), 1 mM): 85.80%

Which results are given for `CC(C)CC(O)Cc1ccccc1` (stereo not drawn) [Alpha-Isobutylphenethyl alcohol]?
activation at 1000 µM (human TRPA1; [2]): 73%; A1V1 activation, % of agonist value (TRPA1V1; Table 1(c), 1 mM): 58.62%

With `CCCCCOC(=O)c1ccco1` [Amyl furoate] as the molecule, how does the “A1 activation, % of agonist value” (human TRPA1; [2]) read?
The value was 81.09%.

What about the “A1V1 activation, % of agonist value” (TRPA1V1; Table 1(c), 1 mM) of the same molecule?
Its value is 87.70%.

How did the “A1 activation, % of agonist value” (human TRPA1; [2]) turn out when `COc1ccc(COC=O)cc1` [Anisyl formate] was run?
Its value is 89.5%.

What about the “A1V1 activation, % of agonist value” (TRPA1V1; Table 1(c), 1 mM) of the same molecule?
Its value is 78.2%.

What does the source list for `OCc1ccccc1` [Benzenemethanol]?
activation at 1000 µM (human TRPA1; [2]): 79.6%; A1V1 activation, % of agonist value (TRPA1V1; Table 1(c), 1 mM): 78.47%

`O=C(c1ccccc1)C(O)c1ccccc1` (centres unmarked) [Benzoin] was tested. Which activation at 1000 µM (human TRPA1; [3]) did it give?
Its activation at 1000 µM is 26.2%.

What about the “A1V1 activation, % of agonist value” (TRPA1V1; Table 1(e), 1 mM) of the same molecule?
The value was 61.81%.

How did the “A1 activation, % of agonist value” (human TRPA1; [2]) turn out when `O=C(Nc1ccccc1C(=O)O)c1ccccc1` [Benzoylanthranilic acid] was run?
Its value is 145.9%.

What about the “A1V1 activation, % of agonist value” (TRPA1V1; Table 1(c), 1 mM) of the same molecule?
Its value is 125.6%.

How did the “A1 activation, % of agonist value” (human TRPA1; [2]) turn out when `Cc1ccc(C(C)O)cc1` (stereo not drawn) [Benzyl alcohol, p,alpha-dimethyl-] was run?
Its value is 77.2%.

And the “A1V1 activation, % of agonist value” (TRPA1V1; Table 1(c), 1 mM)?
Its value is 71.8%.

`CCCC(=O)OCc1ccccc1` [Benzyl butyrate] was tested. Which activation at 1000 µM (human TRPA1; [2]) did it give?
Its activation at 1000 µM is 70%.

What about the “A1V1 activation, % of agonist value” (TRPA1V1; Table 1(c), 1 mM) of the same molecule?
Its value is 64.7%.

For `CCC(=O)OCc1ccccc1` [Benzyl propionate], which activation at 1000 µM (human TRPA1; [2]) is on record?
The activation at 1000 µM was 103%.

What about the “A1V1 activation, % of agonist value” (TRPA1V1; Table 1(c), 1 mM) of the same molecule?
The value was 90.7%.

Which results are given for `CC(C)=CCC[C@](C)(O)C1CC=C(C)CC1` (some centres unmarked) [Bisabolol]?
activation at 1000 µM (human TRPA1; [2]): 68%; A1V1 activation, % of agonist value (TRPA1V1; Table 1(c), 1 mM): 73.53%

How did the activation at 1000 µM (human TRPA1) turn out when `O=CC=Cc1ccccc1` [Cinnamaldehyde] was run?
The activation at 1000 µM was 51.2%.

What about the “A1V1 activation, % of agonist value” (TRPA1V1; Table 1(e), 1 mM) of the same molecule?
Its value is 77.3%.

Which results are given for `O=C(O)C=Cc1ccccc1` [Cinnamic acid]?
activation at 1000 µM (human TRPA1; [2]): 37.7%; A1V1 activation, % of agonist value (TRPA1V1; Table 1(c), 1 mM): 42.5%

`CC(=O)OCC=Cc1ccccc1` [Cinnamyl acetate] was tested. Which activation at 1000 µM (human TRPA1; [2]) did it give?
Its activation at 1000 µM is 85%.

What about the “A1V1 activation, % of agonist value” (TRPA1V1; Table 1(c), 1 mM) of the same molecule?
The value was 89.73%.

What does the source list for `OCC=Cc1ccccc1` [Cinnamyl alcohol]?
activation at 1000 µM (human TRPA1): 89.8%; A1V1 activation, % of agonist value (TRPA1V1; Table 1(c), 1 mM): 79.4%

For `CCCCC/C=C\CCO` [Cis-3-nonen-1-ol], which activation at 1000 µM (human TRPA1; [1]) is on record?
Its activation at 1000 µM is 55%.

And the “A1V1 activation, % of agonist value” (TRPA1V1; Table 1(d), 1 mM)?
The value was 41.22%.

For `COC(C=C(C)CCC=C(C)C)OC` [Citral dimethyl acetal], which activation at 1000 µM (human TRPA1; [3]) is on record?
Its activation at 1000 µM is 102%.

And the “A1V1 activation, % of agonist value” (TRPA1V1; Table 1(e), 1 mM)?
The value was 137.2%.

How did the activation at 1000 µM (human TRPA1; [2]) turn out when `CC(C)=CCCC(C)=CC=O` [Citral] was run?
The activation at 1000 µM was 145%.

What about the “A1V1 activation, % of agonist value” (TRPA1V1; Table 1(c), 1 mM) of the same molecule?
The value was 132.7%.

With `CCCC(=O)OCCC(C)CCC=C(C)C` (centres unmarked) [Citronellyl butyrate] as the molecule, how does the activation at 100 µM (human TRPA1; [4]) read?
Its activation at 100 µM is 44.9%.

And the “A1V1 activation, % of agonist value” (TRPA1V1; Table 1(c), 100 μM (*))?
The value was 57.9%.

How did the activation at 100 µM (human TRPA1; [4]) turn out when `CCC(=O)OCCC(C)CCC=C(C)C` (centres unmarked) [Citronellyl propionate] was run?
The activation at 100 µM was 52.5%.

And the “A1V1 activation, % of agonist value” (TRPA1V1; Table 1(c), 100 μM (*))?
The value was 43.2%.

For `CC(C=O)Cc1ccc(C(C)C)cc1` (centres unmarked) [Cyclamen aldehyde], which “A1 activation, % of agonist value” (human TRPA1; [3]) is on record?
Its value is 94.1%.

And the “A1V1 activation, % of agonist value” (TRPA1V1; Table 1(e), 1 mM)?
Its value is 120.9%.

How did the activation at 1000 µM (human TRPA1; [2]) turn out when `CCCCCCCCCC(=O)O` [Decanoic acid] was run?
The activation at 1000 µM was 65.1%.

What about the “A1V1 activation, % of agonist value” (TRPA1V1; Table 1(c), 1 mM) of the same molecule?
The value was 73.45%.

Which results are given for `CC(=O)CCC1=C(C)CCCC1(C)C` [Dihydro-beta-ionone]?
A1 activation, % of agonist value (human TRPA1; [2]): 64.4%; A1V1 activation, % of agonist value (TRPA1V1; Table 1(c), 1 mM): 64.07%

What does the source list for `CCOC(=O)C(Cc1ccccc1)C(C)=O` (centres unmarked) [Ethyl 2-benzylacetoacetate]?
activation at 1000 µM (human TRPA1): 98%; A1V1 activation, % of agonist value (TRPA1V1; Table 1(c), 1 mM): 115%

With `CCOC(=O)C(C)S` (centres unmarked) [Ethyl 2-mercaptopropionate] as the molecule, how does the activation at 100 µM (human TRPA1; [4]) read?
Its activation at 100 µM is 88.3%.

And the “A1V1 activation, % of agonist value” (TRPA1V1; Table 1(c), 100 μM (*))?
The value was 70.2%.

For `CCCCCC=CC(=O)OCC` [Ethyl 2-octenoate], which activation at 1000 µM (human TRPA1; [2]) is on record?
The activation at 1000 µM was 128%.

And the “A1V1 activation, % of agonist value” (TRPA1V1; Table 1(c), 1 mM)?
Its value is 120%.

For `CCCCCC(=O)CCCC(=O)OCC` [Ethyl 5-oxodecanoate], which activation at 1000 µM (human TRPA1; [1]) is on record?
Its activation at 1000 µM is 51%.

What about the “A1V1 activation, % of agonist value” (TRPA1V1; Table 1(d), 1 mM) of the same molecule?
The value was 28.24%.

What does the source list for `CCOC(=O)c1ccccc1` [Ethyl benzoate]?
activation at 1000 µM (human TRPA1; [2]): 70%; A1V1 activation, % of agonist value (TRPA1V1; Table 1(c), 1 mM): 60%

Which activation at 1000 µM (human TRPA1; [1]) does the source give for `CCOC(=O)CCc1ccccc1` [Ethyl hydrocinnamate] here?
The activation at 1000 µM was 72.2%.

What about the “A1V1 activation, % of agonist value” (TRPA1V1; Table 1(d), 1 mM) of the same molecule?
The value was 50.9%.

What does the source list for `CCOC(=O)c1ccc(OC)cc1` [Ethyl p-anisate]?
activation at 1000 µM (human TRPA1; [2]): 91.2%; A1V1 activation, % of agonist value (TRPA1V1; Table 1(c), 1 mM): 93.1%
